Assays:
[1] = test system: human pancreatic tumor cell lines; assay: Propidium iodide based monolayer proliferation assay, panel of 13 human pancreatic tumor cell lines; conditions: Homo sapiens, 96 h; 13 pancreatic cell lines, four days treatment; read-out: geomean IC50
Experimental: (§1) Monolayer Assay Propidium Iodid (PI). Cells were harvested from exponential phase cultures, counted and depending on the cell line 3.000 to 20.000 cells were plated in 96-well flat-bottom microtiter plates After a 24 h recovery period to allow cells to resume exponential growth, 10 μl of culture medium (four control wells/plate) or culture medium with the test compound were added by a liquid handling robotic system and treatment continued for four days. Compounds were applied in half-log increments at 10 concentrations in duplicate. Three independent experiments were performed. Cells were then washed with 200 μl PBS to remove dead cells followed by addition of 200 μl of a solution containing 7 μg/ml propidium iodide (PI) and 0.1% (v/v) Triton X-100. After an incubation period of 1-2 h at room temperature, fluorescence (FU) was measured using the Cytofluor 4000 microplate reader (excitation λ=530 nm, emission λ=620 nm) to quantify the amount of attached viable cells. Concentrations required for 50% inhibition of cell growth (IC50) were calculated by non-linear regression (log[conc. of inhibitor]versus response (% T/C)) using the analysis software GraphPad Prism®, Prism 5 for windows, version 5.01 (GraphPad Software Inc., CA).
CROMOC36—in vitro activity Human pancreatic carcinoma cell lines. The aim of this study was to investigate the antitumor activity of CROMOC36 in vitro on a panel of 13 human pancreatic tumor cell lines. Antitumor activity was assessed after four days of CROMOC36 treatment using a propidium iodide based monolayer proliferation assay. Up to four experiments were performed in each cell line, testing CROMOC36 at ten concentrations in half-log increments up to 1 μM. Taxol, an antitumor agent commonly used for the treatment of pancreatic cancer, was used as a reference compound and tested in half-log steps up to 0.3 μM.

[2] = test system: murine Lewis lung carcinoma; assay: Lewis lung carcinoma (LLC) model, primary tumor growth and metastasis
Experimental: The efficacy of CROMOC36 on the Lewis lung carcinoma (LLC) model, was selected for testing the activity of CROMOC36 against primary tumor growth and metastasis formation. CROMOC36 was tested as a single agent and in combination with Cyclophosphamide (CYPP). In addition, single-agent CYPP was used as a reference compound, allowing comparison of the efficacy of CROMOC36 with a commonly used antitumor agent (summarized in FIG. 9).

[3] = test system: HCT116 human colon carcinoma xenograft with null p53 (HCT116 p53−/−); assay: HCT116 p53-/- xenograft, single agent and combination with cisplatin or vincristine; assay type: in vivo, female athymic nude mice; conditions: for % TGD (tumor growth delay) / time to study endpoint (TTE): endpoint tumor volume of 1000 mm^3, CROMOC36 as single agent or in combination; for time to study endpoint (TTE): control Day 23; for tumor growth inhibition: single-agent reference, q7dx5 (CDDP 4 mg/kg, VCR 2 mg/kg)
Experimental: A study was conducted to evaluate the efficacy and tolerability of CROMOC36 against an HCT116 human colon carcinoma xenograft model with null p53 (HCT116 p53−/−) in female athymic nude mice. CROMOC36 was administered subcutaneously (s.c.) three times at intervals of two weeks (q14dx3) as a single agent or in combination with cisplatin (CDDP) at 4 mg/kg or vincristine (VCR) at 2 mg/kg which were both administered five times at intervals of one week (q7dx5). CROMOC36 was tested at 32 mg/kg or using a decreasing dosage of 32-16-16 mg/kg. CDDP and VCR were also administered as single agents to allow comparison of the efficacy of CROMOC36 with commonly used anticancer drugs. The dose and schedule of CDDP and VCR treatments remained the same when tested as single agents or in combination with CROMOC36. […] Efficacy was also evaluated by measuring the tumor growth delay (TGD) and the number of regression responses.

Osteosarcoma (U2OS) cell = assay: Monolayer Sulphorhodamine B (SRB) staining assay, 72 hours, preCROMOC-DDM fusion molecules; assay type: cell-based, human; conditions: CPP fused to preCROMOC
Experimental: Cells were harvested from exponential phase cultures, and depending on the cell line 10.000 to 30.000 cells were plated in 96-well flat-bottom microtiter plates. After a 24 h recovery period to allow cells to resume exponential growth, supernatant was discarded and 100 μl of culture medium (eight control wells/plate) or culture medium with the test compound were added by a liquid handling robotic system (Microlab® Starlet, Hamilton) and treatment continued for 72 hrs. Compounds were applied at 9 concentrations eight wells/concentration). At least three independent experiments were performed. For SRB staining, cells were fixed with SRB01 for 1h at 4° C. (final concentration of TCA=10%) washed with a plate washer (Hydroflex, Tecan©) for five times with H2O; and stained with 100 μl of SRB02 at room temperature for 10 min following 4 washes in SRB03 and finally 100 μl of developer solution SRB04 for 5 minutes with shaking. Optical density was assessed using a plate-reader (Sunrise, Tecan©) at 540 nm. Concentrations required for 50% inhibition of cell growth (IC50) were calculated by non-linear regression (log[conc. of inhibitor] versus response (% T/C)) using the analysis software GraphPad Prism®, Prism 5 for windows, version 5.01 (GraphPad Software Inc., CA). (SRB Buffers FIG. 25).

[4] = test system: IMR32 human neuroblastoma xenograft; assay: IMR32 human neuroblastoma xenograft model; assay type: in vivo, mice; conditions: single agent, q14dx2; CROMOC36 32 mg/Kg s.c.; doxorubicin 8 mg/kg i.v.
Excerpt: FIG. 11: IMR32 s.c. implanted. Treatment on xenograft mice with advanced tumors (volume >50 mm^3). Variation in tumor volume expressed as percentage with respect to initial volume (day 0; designated as 100%). Final measurements for vehicle (PBS) and Doxorubicin groups were taken on day 42. For the remaining groups, final measurements were taken on day 63, the termination day of the experiment. Growth reduction compared to controls on day 42 (p<0.01).
The aim of this study was to assess the in vivo efficacy of CROMOC36 on a IMR32 human neuroblastoma xenograft model. CROMOC36 was administered subcutaneously (s.c.) at intervals of two weeks (q14dx2) at two different doses (32 mg/Kg) and also in combination with doxorubicin administered intravenously (i.v.) (32/kg CROMOC36+4+4 mg/Kg doxorubicin, s.c and i.v., q14dx2). Doxorubicin was also used alone as a reference compound (8 mg/kg, i.v., q14dx2). Vehicle was PBS.

[5] = test system: M5076 ovarian reticulum sarcoma tumor cell line; assay: M5076 artificial hepatic metastasis model, i.v. route; conditions: CROMOC36 16 mg/kg i.v. q7dx3; Doxorubicin 6 mg/kg q4dx3 (MTD)
[6] = test system: Human hepatocellular carcinoma cell lines; assay: Monolayer assay, human hepatocellular carcinoma cell lines, 96h treatment (geomean of three lines); assay type: cell-based; conditions: Homo sapiens; three HCC cell lines, 96h treatment
Experimental: as §1
CROMOC36—in vitro activity Human hepatocellular carcinoma cell lines IC50 values of CROMOC36 and Sorafenib, 96h treatment. […] The individual results for CROMOC36 are included in FIG. 24. […] The individual results for Sorafenib are included in (FIG. 24).

HEP3B = assay: Monolayer assay, 96h treatment, HEP3B; assay type: cell-based, human; conditions: Homo sapiens
Experimental: as §1
(§2) CROMOC36—in vitro activity Human hepatocellular carcinoma cell lines IC50 values of CROMOC36 and Sorafenib, 96h treatment. […]

HEPG2 = assay: Monolayer assay, 96h treatment, HEPG2; assay type: cell-based, human; conditions: Homo sapiens; HEPG2, 96h treatment
Experimental: as §1, §2

LIXF 575L = assay: Monolayer assay, 96h treatment, LIXF 575L; assay type: cell-based, human; conditions: Homo sapiens
Experimental: as §1, §2

[7] = test system: human colon carcinoma with null p53 (HCT116 p53−/−) xenograft; assay: HCT116 p53-/- xenograft, CROMOC36 versus nuclease impaired CROMOC60; assay type: in vivo, mouse; conditions: s.c. 4 mg/kg on days 0, 1, 2, 3, 6, 7, 8, 9, 10, 20, 22, 24
Experimental: FIG. 7: HCT116 p53−/− human colon carcinoma xenograft. Treatment on advanced tumors (volume >50 mm^3). Dose: CROMOC36 4 mg/kg; CROMOC60 4 mg/kg. Treatment: s.c. administration on day 0, 1, 2, 3, 6, 7, 8, 9, 10, 20, 22, 24.
A study was conducted to test the antitumor efficacy of CROMOC36 on an advanced human colon carcinoma with null p53 (HCT116 p53−/−) xenograft model and compare it to a vehicle or a nuclease impaired version CROMOC60 treatment group. CROMOC60 is no more catalytically active as a nuclease but is able to be transported to the nucleus of a cell. This study was also designed to proof that the active principle of the tumor growth inhibiting activity of CROMOC is the nuclease activity in vivo. CROMOC36 and CROMOC60 were both administered subcutaneously (s.c.) at 4 mg/kg dose on the days 0, 1, 2, 3, 6, 7, 8, 9, 10, 20, 22, 24. […] This also proofs that CROMOC36 can serve as a valid DNA DSB reagent.

CC(=O)O[C@H]1C(=O)[C@@]2(C)[C@H]([C@H](OC(=O)c3ccccc3)[C@]3(O)C[C@H](OC(=O)[C@H](O)[C@@H](NC(=O)c4ccccc4)c4ccccc4)C(C)=C1C3(C)C)[C@]1(OC(C)=O)CO[C@@H]1C[C@@H]2O [Taxol, reference compound]
IC50 [1]: 1.99 nM

O=P1(N(CCCl)CCCl)NCCCO1 (centres unmarked) [CYPP, Cyclophosphamide, reference compound]
inhibition of number of metastases ([2]; CYPP single agent, 180 mg/kg): 62% | tumor growth inhibition (TI), primary tumor ([2]; single agent, CROMOC36 s.c. q2dx5): 78.6%

CC[C@]1(O)C[C@H]2CN(CCc3c([nH]c4ccccc34)[C@@](C(=O)OC)(c3cc4c(cc3OC)N(C=O)[C@H]3[C@@](O)(C(=O)OC)[C@H](OC(C)=O)[C@]5(CC)C=CCN6CC[C@]43[C@@H]65)C2)C1 [VCR, vincristine, reference compound]
% TGD (tumor growth delay) [3]: 52% | time to study endpoint (TTE) [3]: 35 days | tumor growth inhibition [3]: 45.4%

GNSGSGKKKKKGKGSGLGSGKKKDPLGSGLGSGKKKKKGKGSGLGSGKKKDPLGST (peptide, DDM36)
activity in the SRB assay compared with TAT, Pentratin, and Transportan (Osteosarcoma (U2OS) cell): orders of magnitude higher activity

COc1cccc2c1C(=O)c1c(O)c3c(c(O)c1C2=O)C[C@@](O)(C(=O)CO)C[C@@H]3O[C@H]1C[C@H](N)[C@H](O)[C@H](C)O1 [Doxorubicin, reference compound]
tumor growth inhibition (TGI) compared to controls [4]: 10% | % ILS (mean survival time versus control group) [5]: 32%

[NH2][Pt]([NH2])([Cl])[Cl] [CDDP, cisplatin, reference compound]
% TGD (tumor growth delay) [3]: 48% | time to study endpoint (TTE) [3]: 34 days | tumor growth inhibition [3]: 47.2%

CNC(=O)c1cc(Oc2ccc(NC(=O)Nc3ccc(Cl)c(C(F)(F)F)c3)cc2)ccn1 [Sorafenib, reference compound]
IC50 [6]: 4.68 µM | IC50 (HEP3B): 2830 nM | IC50 (HEPG2): 5.97 µM | IC50 (LIXF 575L): 6.07 µM

B1: CROMOC60: nuclease impaired version; no more catalytically active as a nuclease but able to be transported to the nucleus (protein)
chain: MSHPDLNKLLELWPHIQEYQDLALKHGINDIFQDNGGKLLQVLLITGLTVLPGREGNDAVDNAGQEYELKSINIDLTAGFSTHHHMNPVIIAKYRQVPWIFAIYRGIAIEAIYRLEPKDLEFYYDKWERKWYSDGHKDINNPKIPVKYVMEHGTKIYGSGGSGGSSHPDLNKLLELWPHIQEYQDLALKHGINDIFQDNGGKLLQVLLITGLTVLPGREGNDAVDNAGQEYELKSINIDLTAGFSTHHHMNPVIIAKYRQVPWIFAIYRGIAIEAIYRLEPKDLEFYYDKWERKWYSDGHKDINNPKIPVKYVMEHGTKIYGNSGSGKKKKKGKGSGLGSGKKKDPLGSGLGSGKKKKKGKGSGLGSGKKKDPLGST
modifications: peptide, CROMOC60
progression of HCT116 p53−/− human colon carcinoma as compared to vehicle control [7]: not
